Data: paper PMC10301922, “Anti-Oxidant, Anti-Mutagenic Activity and Safety Evaluation of Antrocin” (Toxics, 2023)
Where two headings read alike, the source gives them in different places.

Tests used:
Sprague Dawley rats [1] = settings: rat, in vivo, 7.5 mg/kg
Wistar rats = system: Wistar rats; set-up: method as in earlier work; settings: 28-day oral; cited from earlier work
Sprague Dawley rats [2] = settings: rat, in vivo, po, 7.5 mg/kg
Sprague Dawley rats [3] = settings: rat, in vivo, po, 7.5 mg/kg; remark: listed apart in the source
Sprague Dawley rats [4] = settings: rat, in vivo, po, 7.5 mg/kg; remark: listed apart in the source
CHO-K1 cells = settings: with S9 (3 h), 25 μg/mL, positive control
Experimental: A chromosomal aberration test was performed to evaluate the potential for antrocin to induce structural chromosomal abnormalities in Chinese hamster ovary cells (CHO-K1 cells). The test followed the protocol in Genetic Toxicology Testing: A Laboratory Manual. CHO-K1 cells were obtained from the Bioresource Collection and Research Center (BCRC), and were cultured in Ham F-12 medium with 10% fetal bovine serum and 0.1% Penicillin–Streptomycin at 5% CO2 in a 37 °C incubator. […] Three experimental conditions were conducted: 3 h with and without S9 (short term), and 19 h without S9 (long term). […] CHO-K1 cells were cultured in 25T flasks, incubated with samples for 3 or 19 h with and without S9, and harvested at the time of 1.5 cell cycle lengths (about 21 h). Two hours before harvesting, 100 μL colcemid (10 μg/mL) was added to disrupt cell mitosis. Collected cells were then treated with 0.6% KCl solution and fixed with acetic acid–methanol (1:3) solution. After fixation, cells were stained with Diff-Quik on a glass slide. A total of 300 cells in metaphase per group were observed, and the number of chromosomal aberrations was recorded. The chromosomal aberration rate (%) was calculated using the following formula: (number of cells with aberrations/total number of cells examined) × 100. A Student’s t-test was used for statistical analysis, and a significant increase (p < 0.05) compared to the negative control indicated a positive response.

ICR male mice = assay: In vivo mammalian erythrocyte micronucleus test; settings: for Mn-RETs/1000RETs (‰) / RETs/1000RBCs (‰): 60 mg/kg bw ip; for frequencies of micronuclei: positive control group (60 mg/kg ip)
[5] = system: Salmonella typhimurium TA1535; assay: Antimutagenicity test, TA1535
[6] = system: Salmonella typhimurium TA100
[7] = system: Salmonella typhimurium TA1535; assay: Ames test (plate incorporation), TA1535; settings: TA1535, with S9, positive reagent 5 μg/plate
[8] = system: Salmonella typhimurium TA102; assay: Ames test (plate incorporation), TA102; settings: TA102, with S9, positive reagent 5 μg/plate
[9] = system: Salmonella typhimurium TA98; assay: Ames test (plate incorporation), TA98; settings: TA98, with S9, positive reagent 5 μg/plate
[10] = system: Salmonella typhimurium TA1537; assay: Ames test (plate incorporation), TA1537; settings: TA1537, with S9, positive reagent 5 μg/plate
[11] = system: Salmonella typhimurium TA98
[12] = female, Sprague Dawley, po, 28 days
[13] = male, Sprague Dawley, po, 28 days

For `CNC(=O)c1cc(Oc2ccc(NC(=O)Nc3ccc(Cl)c(C(F)(F)F)c3)cc2)ccn1` [Sorafenib, sorafenib], the “Adrenal gland: Congestion, cortex, focal, slight; incidence” value (Sprague Dawley rats [1]; [12]) was 1/5, the “Bone, femur: Hypertrophy, epiphysis, diffuse, slight to moderate/severe; incidence” value (Sprague Dawley rats [1]; [12]) was 5/5 and the “Kidney: Cast, tubule, focal, slight; incidence” value (Sprague Dawley rats [1]; [12]) was 1/5. The “Kidney: Infarct, tubule, focal, slight; incidence” value (Sprague Dawley rats [1]; [12]) was 1/5, the “Ovary: Increase, follicle, multifocal, moderate to moderate/severe; incidence” value (Sprague Dawley rats [1]; [12]) was 4/4 and the “Adrenal gland: Congestion, cortex, multifocal, slight; incidence” value (Sprague Dawley rats [1]; [13]) was 1/5. For the same compound, the “Bone marrow, femur: Hypocellularity, diffuse, slight to moderate/severe; incidence” value (Sprague Dawley rats [1]; [13]) was 3/5, the “Bone marrow, sternum: Hypocellularity, diffuse, moderate; incidence” value (Sprague Dawley rats [1]; [13]) was 3/5 and the “Bone, femur: Hypertrophy, epiphysis, diffuse, slight to moderate/severe; incidence” value (Sprague Dawley rats [1]; [13]) was 5/5. For the same compound, the “Epididymis: Granuloma, spermatic, focal, moderate; incidence” value (Sprague Dawley rats [1]; [13]) was 1/5, the “Heart: Infiltration, mononuclear cell, focal, minimal to slight; incidence” value (Sprague Dawley rats [1]; [13]) was 1/5 and the “Kidney: Cast, tubule, focal, minimal; incidence” value (Sprague Dawley rats [1]; [13]) was 3/5. The “Spleen: Atrophy, red pulp, diffuse, slight to moderate; incidence” value (Sprague Dawley rats [1]; [13]) was 5/5, the “Salivary gland, Sublingual lobe: histopathological lesions” value (Sprague Dawley rats [1]) was “-” and the “Aorta: histopathological lesions” value (Sprague Dawley rats [1]; po) was “-”. The “Cervix: histopathological lesions” value (Sprague Dawley rats [1]; po) was “-”, the “Coagulative gland: histopathological lesions” value (Sprague Dawley rats [1]; po) was “-” and the “Esophagus: histopathological lesions” value (Sprague Dawley rats [1]; po) was “-”. The “Eyes: histopathological lesions” value (Sprague Dawley rats [1]; po) was “-”, the “Harderian gland: Infiltration, mononuclear cell, focal, minimal; incidence” value (Sprague Dawley rats [1]; po) was “-” and the “Harderian gland: histopathological lesions” value (Sprague Dawley rats [1]; po) was “-”. The “Heart: histopathological lesions” value (Sprague Dawley rats [1]; po) was “-”, the “Intestine, large, Caecum: histopathological lesions” value (Sprague Dawley rats [1]; po) was “-” and the “Intestine, large, Colon: histopathological lesions” value (Sprague Dawley rats [1]; po) was “-”. The “Intestine, large, Rectum: histopathological lesions” value (Sprague Dawley rats [1]; po) was “-”, the “Intestine, small, Duodenum: histopathological lesions” value (Sprague Dawley rats [1]; po) was “-” and the “Intestine, small, Ileum: histopathological lesions” value (Sprague Dawley rats [1]; po) was “-”. The “Intestine, small, Jejunum: histopathological lesions” value (Sprague Dawley rats [1]; po) was “-”, the “Kidney: Cyst, tubule, focal, slight; incidence” value (Sprague Dawley rats [1]; po) was “-” and the “Liver: Fatty change, multifocal, slight; incidence” value (Sprague Dawley rats [1]; po) was “-”. For the same compound, the “Liver: histopathological lesions” value (Sprague Dawley rats [1]; po) was “-”, the “Lung: histopathological lesions” value (Sprague Dawley rats [1]; po) was “-” and the “Lymph node, Cervical: histopathological lesions” value (Sprague Dawley rats [1]; po) was “-”. The “Lymph node, Mesenteric: histopathological lesions” value (Sprague Dawley rats [1]; po) was “-”, the “Lymph node: histopathological lesions” value (Sprague Dawley rats [1]; po) was “-” and the “Mammary gland: histopathological lesions” value (Sprague Dawley rats [1]; po) was “-”. The “Optic nerve: histopathological lesions” value (Sprague Dawley rats [1]; po) was “-”, the “Oviduct: histopathological lesions” value (Sprague Dawley rats [1]; po) was “-” and the “Pancreas: histopathological lesions” value (Sprague Dawley rats [1]; po) was “-”. The “Parathyroid gland: histopathological lesions” value (Sprague Dawley rats [1]; po) was “-”, the “Pituitary: histopathological lesions” value (Sprague Dawley rats [1]; po) was “-” and the “Prostate gland: Infiltration, mononuclear cell, focal, minimal to slight; incidence” value (Sprague Dawley rats [1]; po) was “-”. The “Salivary gland, Mandibular lobe: histopathological lesions” value (Sprague Dawley rats [1]; po) was “-”, the “Salivary gland: histopathological lesions” value (Sprague Dawley rats [1]; po) was “-” and the “Sciatic nerve: histopathological lesions” value (Sprague Dawley rats [1]; po) was “-”. For the same compound, the “Seminal vesicle: histopathological lesions” value (Sprague Dawley rats [1]; po) was “-”, the “Skeletal muscle: histopathological lesions” value (Sprague Dawley rats [1]; po) was “-” and the “Skin: histopathological lesions” value (Sprague Dawley rats [1]; po) was “-”. For the same compound, the “Spinal cord: histopathological lesions” value (Sprague Dawley rats [1]; po) was “-”, the “Spleen: histopathological lesions” value (Sprague Dawley rats [1]; po) was “-” and the “Stomach: histopathological lesions” value (Sprague Dawley rats [1]; po) was “-”. For the same compound, the “Testis: histopathological lesions” value (Sprague Dawley rats [1]; po) was “-”, the “Thymus: histopathological lesions” value (Sprague Dawley rats [1]; po) was “-” and the “Thyroid gland: histopathological lesions” value (Sprague Dawley rats [1]; po) was “-”. The “Tongue: histopathological lesions” value (Sprague Dawley rats [1]; po) was “-”, the “Trachea: histopathological lesions” value (Sprague Dawley rats [1]; po) was “-” and the “Urinary bladder: histopathological lesions” value (Sprague Dawley rats [1]; po) was “-”. For the same compound, the “Uterus: histopathological lesions” value (Sprague Dawley rats [1]; po) was “-”, the “Vagina: histopathological lesions” value (Sprague Dawley rats [1]; po) was “-” and the “dose above which abnormality was found (clinical observation, hematology, biochemistry, histopathology)” value (Wistar rats) was “above 25 mg/kg”. The “Brain” value (Sprague Dawley rats [2]) was 2.0 ± 0.1 g, the GGT (Sprague Dawley rats [3]) was less than 1 U/L and the TB (Sprague Dawley rats [3]) was less than 0.1 mg/dL. For the same compound, the BASO (Sprague Dawley rats [4]) was 0.1 ± 0.1%.
With `O=P1(N(CCCl)CCCl)NCCCO1` (stereo not drawn) [Cyclophosphamide, cyclophosphamide, reference compound] the “Frequency of Chromosomal Aberration (%)” value (CHO-K1 cells) was 15.3 ± 2.3%, the “Total Aberrations” value (CHO-K1 cells) was 46/300 and the “Mn-RETs/1000RETs (‰)” value (ICR male mice; 48 h) was 22.9 ± 12.2 ‰. The “RETs/1000RBCs (‰)” value (ICR male mice; 48 h) was 3.6 ± 2.1 ‰, the frequencies of micronuclei (ICR male mice; 48 h) was 3.6 ± 2.1 ‰ and the “Mn-RETs/1000RETs (‰)” value (ICR male mice; 72 h) was 6.8 ± 3.7 ‰. For the same compound, the “RETs/1000RBCs (‰)” value (ICR male mice; 72 h) was 3.9 ± 2.1 ‰ and the frequencies of micronuclei (ICR male mice; 72 h) was 3.9 ± 2.1 ‰.
For `[N-]=[N+]=[N-].[Na+]` [sodium azide, reference compound], the “reverse mutants, times more than the negative control group” value (shortened to “reverse mutants”) ([5]; TA1535, without S9, 5 μg/plate) was “about 122 times”, the “Number of Revertant” value ([5]; TA1535, without S9, positive reagent alone 5 μg/plate) was 1313.0 ± 42.0 Colony/Plate and the “Number of Revertant” value ([6]; TA100, without S9, positive reagent 5 μg/plate) was 2223.0 ± 53.2 Colony/Plate.
In the case of `Nc1ccc2cc3ccccc3cc2c1` [2-AA, 2-aminoanthracene, reference compound], the “Number of Revertant” value [7] is reported as 535.0 ± 138.6 Colony/Plate, the “Number of Revertant” value [8] is reported as 1532.0 ± 204.2 Colony/Plate and the “reverse mutants” value ([5]; TA1535, with S9, 25 μg/plate) is reported as “about 23 times”. For the same compound, the “Number of Revertant” value ([5]; TA1535, with S9, positive reagent alone 25 μg/plate) was 270.3 ± 7.5 Colony/Plate, the “Number of Revertant” value [9] was 1881.3 ± 434.2 Colony/Plate and the “Number of Revertant” value [10] was 269.0 ± 21.9 Colony/Plate. The “Number of Revertant” value ([6]; TA100, with S9, positive reagent 5 μg/plate) was 2099.7 ± 145.5 Colony/Plate, the “reverse mutants” value ([11]; TA98, with S9, 25 μg/plate) was “about 275 times” and the “Number of Revertant” value ([11]; TA98, with S9, positive reagent alone 25 μg/plate) was 6055.0 ± 661.0 Colony/Plate.
